In the supplement of paper PMC11061612:

Key:
Assay in all cases: combination Emax (second highest fraction inhibited in the dose matrix, 72 h); higher = more inhibition; extreme values may be limits of the assay
[1] = tested on: GP5d (Colorectal Carcinoma)
In short: (§1)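 Bliss excess equals the observed combination effect minus the expected value EA + EB − EA·EB, where EA and EB are the effects of each agent alone. Combination Emax is the second-highest inhibition within the matrix. Inhibition was scaled from CellTiter-Glo 2.0 luminescence, with 0 set by vehicle wells and 1 by blank wells, after 72 hours of two-drug dosing of cells plated in 1536-well plates.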

[2] = tested on: HCT-15 (Colorectal Carcinoma)
In short: as §1

[3] = tested on: HEC-1 (Endometrial Carcinoma)
In short: as §1

IST-MES1 (Mesothelioma) = tested on: IST-MES1 (Mesothelioma)
In short: as §1

[4] = tested on: LK-2 (Squamous Cell Lung Carcinoma)
In short: as §1

[5] = tested on: LXF-289 (Lung Adenocarcinoma)
In short: as §1

[6] = tested on: MKN45 (Gastric Carcinoma)
In short: as §1

[7] = tested on: NCI-H446 (Small Cell Lung Carcinoma)
In short: as §1

[8] = tested on: OAW-42 (Ovarian Carcinoma)
In short: as §1

[9] = tested on: OPM-2 (Plasma Cell Myeloma)
In short: as §1

[10] = tested on: OVMIU (Ovarian Carcinoma)
In short: as §1

[11] = tested on: PANC-03-27 (Pancreatic Carcinoma)
In short: as §1

[12] = tested on: PSN1 (Pancreatic Carcinoma)
In short: as §1

[13] = tested on: RCM-1 (Colorectal Carcinoma)
In short: as §1

[14] = tested on: RKN (Other Solid Carcinomas)
In short: as §1

SF539 (Glioblastoma) = tested on: SF539 (Glioblastoma)
In short: as §1

[15] = tested on: SHP-77 (Small Cell Lung Carcinoma)
In short: as §1

[16] = tested on: SK-PN-DW (Other Solid Carcinomas)
In short: as §1

[17] = tested on: VAL (B-Cell Non-Hodgkin's Lymphoma)
In short: as §1

WM793B (Melanoma) = tested on: WM793B (Melanoma)
In short: as §1

SMILES | combination Emax [1] | combination Emax [2] | combination Emax [3] | combination Emax (IST-MES1 (Mesothelioma)) | combination Emax [4] | combination Emax [5] | combination Emax [6] | combination Emax [7] | combination Emax [8] | combination Emax [9] | combination Emax [10] | combination Emax [11] | combination Emax [12] | combination Emax [13] | combination Emax [14] | combination Emax (SF539 (Glioblastoma)) | combination Emax [15] | combination Emax [16] | combination Emax [17] | combination Emax (WM793B (Melanoma))
COc1nnc2ccc(N3CCC(c4ccc(OCCN5CCN(C)C(=O)[C@H]5C)cc4)CC3)nn12 [AZD5153] + CCN(CCO)CCCOc1ccc2c(Nc3cc(CC(=O)Nc4cccc(F)c4)[nH]n3)ncnc2c1 [AZD2811] (first compound max 1 µM, 7x7, partner max 1 µM) | 0.728 | 0.807 | 0.607 | 0.653 | 0.625 | 0.82 | 0.556 | 0.962 | 0.459 | 1 | 0.706 | 0.179 | 0.566 | 0.612 | 0.44 | 0.699 | 0.432 | 0.726 | 0.727 | 0.641
COc1nnc2ccc(N3CCC(c4ccc(OCCN5CCN(C)C(=O)[C@H]5C)cc4)CC3)nn12 [AZD5153] + C[C@@H]1COCCN1C2=NC(=NC(=C2)C3(CC3)[S@](=N)(=O)C)C4=C5C=CNC5=NC=C4 [AZD6738] (first compound max 1 µM, 7x7, partner max 10 µM) | 0.855 | 0.858 | 0.884 | 0.644 | 0.784 | 0.862 | 0.782 | 0.951 | 0.702 | 1 | 0.795 | 0.489 | 0.586 | 0.674 | 0.562 | 0.882 | 0.821 | 0.868 | 0.835 | 0.827
COc1nnc2ccc(N3CCC(c4ccc(OCCN5CCN(C)C(=O)[C@H]5C)cc4)CC3)nn12 [AZD5153] + Cc1c2c(nn1C)CSCc1cc(n(C)n1)CSc1cc(c3ccccc3c1)OCCCc1c(C(=O)O)n(C)c3c-2c(Cl)ccc13 [AZD5991] (first compound max 1 µM, 7x7, partner max 1 µM) | 0.961 | 0.75 | 0.942 | 0.96 | 0.413 | 0.903 | 0.497 | 0.998 | 0.615 | 1 | 0.813 | 0.252 | 0.506 | 0.619 | 0.495 | 0.638 | 0.544 | 0.985 | 0.854 | 0.688
COc1nnc2ccc(N3CCC(c4ccc(OCCN5CCN(C)C(=O)[C@H]5C)cc4)CC3)nn12 [AZD5153] + Cn1cnc2c(F)c(Nc3ccc(Br)cc3Cl)c(C(=O)NOCCO)cc21 [Selumetinib] (first compound max 1 µM, 7x7, partner max 10 µM) | 0.887 | 0.819 | 0.595 | 0.641 | 0.6 | 0.646 | 0.744 | 0.91 | 0.426 | 1 | 0.737 | 0.398 | 0.818 | 0.817 | 0.577 | 0.653 | 0.424 | 0.559 | 0.738 | 0.786
Cc1c2c(nn1C)CSCc1cc(n(C)n1)CSc1cc(c3ccccc3c1)OCCCc1c(C(=O)O)n(C)c3c-2c(Cl)ccc13 [AZD5991] + C1CN(CCC1(C(=O)N[C@@H](CCO)C2=CC=C(C=C2)Cl)N)C3=NC=NC4=C3C=CN4 [Capivasertib] (first compound max 1 µM, 7x7, partner max 3 µM) | 0.733 | 0.209 | 0.0757 | 0.138 | 0.121 | 0.369 | 0.467 | 0.838 | 0.37 | 1 | 0.353 | 0.167 | 0.241 | 0.307 | 0.173 | 0.573 | 0.263 | 0.95 | 0.811 | 0.31
Cc1c2c(nn1C)CSCc1cc(n(C)n1)CSc1cc(c3ccccc3c1)OCCCc1c(C(=O)O)n(C)c3c-2c(Cl)ccc13 [AZD5991] + C=CCn1c(=O)c2cnc(Nc3ccc(N4CCN(C)CC4)cc3)nc2n1-c1cccc(C(C)(C)O)n1 [AZD1775] (first compound max 1 µM, partner max 1 µM) | 0.977 | 0.557 | 0.247 | 0.31 | 0.88 | 0.813 | 0.826 | 0.941 | 0.502 | 1 | 0.635 | 0.926 | 0.475 | 0.536 | 0.223 | 1 | 0.461 | 0.962 | 0.887 | 0.582
Cc1c2c(nn1C)CSCc1cc(n(C)n1)CSc1cc(c3ccccc3c1)OCCCc1c(C(=O)O)n(C)c3c-2c(Cl)ccc13 [AZD5991] + CC1(C)CCC(CN2CCN(c3ccc(C(=O)NS(=O)(=O)c4ccc(NCC5CCOCC5)c([N+](=O)[O-])c4)c(Oc4cnc5[nH]ccc5c4)c3)CC2)=C(c2ccc(Cl)cc2)C1 [Venetoclax] (first compound max 1 µM, 7x7, partner max 1 µM) | 0.928 | 0.182 | 0.173 | 0.116 | 0.302 | 0.296 | 0.168 | 0.86 | 0.37 | 1 | 0.318 | 0.188 | 0.145 | 0.171 | 0.146 | 0.544 | 0.753 | 0.929 | 1 | 0.261
Cc1c2c(nn1C)CSCc1cc(n(C)n1)CSc1cc(c3ccccc3c1)OCCCc1c(C(=O)O)n(C)c3c-2c(Cl)ccc13 [AZD5991] + CCN(CCO)CCCOc1ccc2c(Nc3cc(CC(=O)Nc4cccc(F)c4)[nH]n3)ncnc2c1 [AZD2811] (first compound max 1 µM, 7x7, partner max 1 µM) | 0.956 | 0.263 | 0.217 | 0.266 | 0.962 | 0.864 | 0.408 | 0.926 | 0.288 | 1 | 0.283 | 0.517 | 0.319 | 0.347 | 0.185 | 0.553 | 0.289 | 0.985 | 0.909 | 0.374
Cc1c2c(nn1C)CSCc1cc(n(C)n1)CSc1cc(c3ccccc3c1)OCCCc1c(C(=O)O)n(C)c3c-2c(Cl)ccc13 [AZD5991] + CN(C)CCCOc1ccc(-c2ccc3ncc4c(c3c2)n(C2CCOCC2)c(=O)n4C)cn1 [AZD0156] (first compound max 1 µM, 7x7, partner max 1 µM) | 0.817 | 0.197 | 0.195 | 0.191 | 0.183 | 0.427 | 0.356 | 0.67 | 0.556 | 1 | 0.359 | 0.254 | 0.397 | 0.232 | 0.173 | 0.302 | 0.284 | 0.835 | 0.657 | 0.305
Cc1c2c(nn1C)CSCc1cc(n(C)n1)CSc1cc(c3ccccc3c1)OCCCc1c(C(=O)O)n(C)c3c-2c(Cl)ccc13 [AZD5991] + C[C@@H]1COCCN1C2=NC(=NC(=C2)C3(CC3)[S@](=N)(=O)C)C4=C5C=CNC5=NC=C4 [AZD6738] (first compound max 1 µM, 7x7, partner max 10 µM) | 0.984 | 0.733 | 0.404 | 0.285 | 0.357 | 0.776 | 0.807 | 0.948 | 0.644 | 1 | 0.483 | 0.819 | 0.488 | 0.801 | 0.215 | 0.919 | 0.594 | 0.947 | 0.933 | 0.834
Cc1c2c(nn1C)CSCc1cc(n(C)n1)CSc1cc(c3ccccc3c1)OCCCc1c(C(=O)O)n(C)c3c-2c(Cl)ccc13 [AZD5991] + C[C@@H](Nc1cc(F)cc(F)c1)c1cc(C(=O)N(C)C)cc2c(=O)cc(N3CCOCC3)oc12 [AZD8186] (first compound max 1 µM, 7x7, partner max 3 µM) | 0.817 | 0.194 | 0.14 | 0.241 | 0.196 | 0.47 | 0.39 | 0.882 | 0.277 | 1 | 0.447 | 0.354 | 0.375 | 0.285 | 0.289 | 0.438 | 0.289 | 0.911 | 0.744 | 0.419
Cc1c2c(nn1C)CSCc1cc(n(C)n1)CSc1cc(c3ccccc3c1)OCCCc1c(C(=O)O)n(C)c3c-2c(Cl)ccc13 [AZD5991] + Cc1cc2ncnn2cc1Nc1ncc2c(n1)n(C1CCOCC1)c(=O)n2C [AZD7648] (first compound max 1 µM, 7x7, partner max 10 µM) | 0.824 | 0.251 | 0.18 | 0.249 | 0.198 | 0.369 | 0.504 | 0.648 | 0.502 | 1 | 0.547 | 0.261 | 0.406 | 0.241 | 0.219 | 0.41 | 0.263 | 0.881 | 0.744 | 0.32
Cc1c2c(nn1C)CSCc1cc(n(C)n1)CSc1cc(c3ccccc3c1)OCCCc1c(C(=O)O)n(C)c3c-2c(Cl)ccc13 [AZD5991] + Cn1cnc2c(F)c(Nc3ccc(Br)cc3Cl)c(C(=O)NOCCO)cc21 [Selumetinib] (first compound max 1 µM, 7x7, partner max 3 µM) | 1 | 0.301 | 0.143 | 0.257 | 0.203 | 0.398 | 0.508 | 0.563 | 0.263 | 1 | 0.383 | 0.597 | 0.67 | 0.651 | 0.292 | 0.427 | 0.598 | 0.887 | 0.724 | 0.454
